Source: patent US6737383B1, “Herbicidal oxadiazolidines” (priority 1999, dated 2004)

Legend:
bedstraw = test: Test B pre/postemergence bedstraw; type: in vivo, Galium aparine
Outline: (§1)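 Herbicidal effect was estimated by eye on a ten-point control scale after plants spent twelve to sixteen days in a greenhouse following soil or foliar treatment. Foliar sprays targeted plants at one to four leaves; all doses were formulated in a non-phytotoxic solvent with surfactant.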

blackgrass = test: Test B pre/postemergence blackgrass; type: in vivo, Alopecurus myosuroides
Outline: as §1

surinam grass = test: Test B pre/postemergence surinam grass; type: in vivo, Brachiaria decumbens
Outline: as §1

cocklebur = test: Test B pre/postemergence cocklebur; type: in vivo, Xanthium strumarium
Outline: as §1

corn = test: Test B pre/postemergence corn; type: in vivo, Zea mays
Outline: as §1

crabgrass = test: Test B pre/postemergence crabgrass; type: in vivo, Digitaria sanguinalis
Outline: as §1

giant foxtail = test: Test B pre/postemergence giant foxtail; type: in vivo, Setaria faberii
Outline: as §1

morningglory = test: Test B pre/postemergence morningglory; type: in vivo, Ipomoea hederacea
Outline: as §1

pigweed = test: Test B pre/postemergence pigweed; type: in vivo, Amaranthus retroflexus
Outline: as §1

rape = test: Test B pre/postemergence rape; type: in vivo, Brassica napus
Outline: as §1

soybean = test: Test B pre/postemergence soybean; type: in vivo, Glycine max
Outline: as §1

velvetleaf = test: Test B pre/postemergence velvetleaf; type: in vivo, Abutilon theophrasti
Outline: as §1

wheat = test: Test B pre/postemergence wheat; type: in vivo, Triticum aestivum
Outline: as §1

wild oat = test: Test B pre/postemergence wild oat; type: in vivo, Avena fatua
Outline: as §1

purple nutsedge = test: Test B pre/postemergence purple nutsedge; type: in vivo, Cyperus rotundus
Outline: as §1

[1] = Postemergence, Rate 125 g/ha, scale 0 to 10, 0 is no effect, 10 is complete control
[2] = Preemergence, Rate 62 g/ha, scale of 0 to 10 where 0 is no effect and 10 is complete control
[3] = Preemergence, Rate 250 g/ha, scale of 0 to 10 where 0 is no effect and 10 is complete control
[4] = Preemergence, Rate 500 g/ha, scale of 0 to 10 where 0 is no effect and 10 is complete control
[5] = Rate 62 g/ha, Postemergence, scale 0 to 10 (0 no effect, 10 complete control)
[6] = Rate 500 g/ha, Postemergence, scale 0 to 10, 0 no effect, 10 complete control
[7] = Rate 250 g/ha, Postemergence, scale of 0 to 10 where 0 is no effect and 10 is complete control

## Cc1ccc(N(C(=O)n2oc(=O)n(-c3ccc4ccccc4c3)c2=O)C(C)C)cc1 [Compound 334]
bedstraw; [1]
  Plant response rating, Bedstraw: 0
bedstraw; [2]
  Bedstraw plant response rating: 0
bedstraw; Preemergence, Rate 125 g/ha
  Bedstraw plant response rating (0 to 10 scale): 0
bedstraw; [3]
  Bedstraw plant response rating: 0
bedstraw; [4]
  Bedstraw plant response rating: 0
bedstraw; [5]
  Bedstraw plant response rating: 0
bedstraw; [6]
  Plant response rating, Bedstraw: 0
blackgrass; [1]
  Plant response rating, Blackgrass: 0
blackgrass; [2]
  Blackgrass plant response rating: 0
blackgrass; Preemergence, Rate 125 g/ha
  Blackgrass plant response rating (0 to 10 scale): 0
blackgrass; [3]
  Blackgrass plant response rating: 0
blackgrass; [4]
  Blackgrass plant response rating: 0
blackgrass; [5]
  Blackgrass plant response rating: 0
blackgrass; [7]
  Plant response rating, Blackgrass: 0
blackgrass; [6]
  Plant response rating, Blackgrass: 0
Surinam grass; [1]
  Plant response rating, B. signalgrass: 0
Surinam grass; [2]
  B. signalgrass plant response rating: 0
Surinam grass; Preemergence, Rate 125 g/ha
  B. signalgrass plant response rating (0 to 10 scale, 0 is no effect, 10 is complete control): 0
Surinam grass; [3]
  B. signalgrass plant response rating: 0
Surinam grass; [4]
  B. signalgrass plant response rating: 0
Surinam grass; [5]
  B. signalgrass plant response rating: 0
Surinam grass; [7]
  Plant response rating, B. signalgrass: 0
Surinam grass; [6]
  Plant response rating, B. signalgrass: 0
cocklebur; [1]
  Plant response rating, Cocklebur: 0
cocklebur; [2]
  Cocklebur plant response rating: 0
cocklebur; Preemergence, Rate 125 g/ha
  Cocklebur plant response rating (0 to 10 scale): 0
cocklebur; [3]
  Cocklebur plant response rating: 0
cocklebur; [4]
  Cocklebur plant response rating: 0
cocklebur; [5]
  Cocklebur plant response rating: 0
cocklebur; [6]
  Plant response rating, Cocklebur: 0
corn; [1]
  Plant response rating, Corn: 0
corn; [2]
  Corn plant response rating: 0
corn; Preemergence, Rate 125 g/ha
  Corn plant response rating (0 to 10 scale): 0
corn; [3]
  Corn plant response rating: 0
corn; [4]
  Corn plant response rating: 0
corn; [5]
  Corn plant response rating: 0
corn; [6]
  Plant response rating, Corn: 0
crabgrass; [1]
  Plant response rating, Crabgrass: 0
crabgrass; [2]
  Crabgrass plant response rating: 0
crabgrass; Preemergence, Rate 125 g/ha
  Crabgrass plant response rating (0 to 10 scale): 0
crabgrass; [3]
  Crabgrass plant response rating: 0
crabgrass; [4]
  Crabgrass plant response rating: 0
crabgrass; [5]
  Crabgrass plant response rating: 0
crabgrass; [6]
  Plant response rating, Crabgrass: 0
Giant foxtail; [1]
  Plant response rating, Giant foxtail: 0
Giant foxtail; [2]
  Giant foxtail plant response rating: 0
Giant foxtail; Preemergence, Rate 125 g/ha
  Giant foxtail plant response rating (0 to 10 scale): 0
Giant foxtail; [3]
  Giant foxtail plant response rating: 0
Giant foxtail; [4]
  Giant foxtail plant response rating: 0
Giant foxtail; [5]
  Giant foxtail plant response rating: 0
Giant foxtail; [6]
  Plant response rating, Giant foxtail: 0
morningglory; [1]
  Plant response rating, Morningglory: 0
morningglory; [2]
  Morningglory plant response rating: 0
morningglory; Preemergence, Rate 125 g/ha
  Morningglory plant response rating (0 to 10 scale): 0
morningglory; [3]
  Morningglory plant response rating: 0
morningglory; [4]
  Morningglory plant response rating: 0
morningglory; [5]
  Morningglory plant response rating: 0
morningglory; [6]
  Plant response rating, Morningglory: 0
pigweed; [1]
  Plant response rating, Redroot pigweed: 0
pigweed; [2]
  Redroot pigweed plant response rating: 0
pigweed; Preemergence, Rate 125 g/ha
  Redroot pigweed plant response rating (0 to 10 scale): 0
pigweed; [3]
  Redroot pigweed plant response rating: 0
pigweed; [4]
  Redroot pigweed plant response rating: 0
pigweed; [5]
  Redroot pigweed plant response rating: 0
pigweed; [6]
  Plant response rating, Redroot pigweed: 0
rape; [1]
  Plant response rating, Rape: 0
rape; [2]
  Rape plant response rating: 0
rape; Preemergence, Rate 125 g/ha
  Rape plant response rating (0 to 10 scale): 0
rape; [3]
  Rape plant response rating: 0
rape; [4]
  Rape plant response rating: 0
rape; [5]
  Rape plant response rating: 0
rape; [6]
  Plant response rating, Rape: 0
soybean; [1]
  Plant response rating, Soybean: 1
soybean; [2]
  Soybean plant response rating: 0
soybean; Preemergence, Rate 125 g/ha
  Soybean plant response rating (0 to 10 scale): 0
soybean; [3]
  Soybean plant response rating: 0
soybean; [4]
  Soybean plant response rating: 0
soybean; [5]
  Soybean plant response rating: 1
soybean; [6]
  Plant response rating, Soybean: 2
velvetleaf; [1]
  Plant response rating, Velvetleaf: 0
velvetleaf; [2]
  Velvetleaf plant response rating: 0
velvetleaf; Preemergence, Rate 125 g/ha
  Velvetleaf plant response rating (0 to 10 scale): 0
velvetleaf; [3]
  Velvetleaf plant response rating: 0
velvetleaf; [4]
  Velvetleaf plant response rating: 0
velvetleaf; [5]
  Velvetleaf plant response rating: 0
velvetleaf; [6]
  Plant response rating, Velvetleaf: 0
wheat; [1]
  Plant response rating, Wheat: 0
wheat; [2]
  Wheat plant response rating: 0
wheat; Preemergence, Rate 125 g/ha
  Wheat plant response rating (0 to 10 scale): 0
wheat; [3]
  Wheat plant response rating: 0
wheat; [4]
  Wheat plant response rating: 0
wheat; [5]
  Wheat plant response rating: 0
wheat; [6]
  Plant response rating, Wheat: 0
Wild oat; [1]
  Plant response rating, Wild oats: 0
Wild oat; [2]
  Wild oats plant response rating: 0
Wild oat; Preemergence, Rate 125 g/ha
  Wild oats plant response rating (0 to 10 scale): 0
Wild oat; [3]
  Wild oats plant response rating: 0
Wild oat; [4]
  Wild oats plant response rating: 0
Wild oat; [5]
  Wild oats plant response rating: 0
Wild oat; [6]
  Plant response rating, Wild oats: 0
Purple nutsedge; [1]
  Plant response rating, Nutsedge: 0
Purple nutsedge; [2]
  Nutsedge plant response rating: 0
Purple nutsedge; Preemergence, Rate 125 g/ha
  Nutsedge plant response rating (0 to 10 scale): 0
Purple nutsedge; [3]
  Nutsedge plant response rating: 0
Purple nutsedge; [4]
  Nutsedge plant response rating: 0
Purple nutsedge; [5]
  Nutsedge plant response rating: 0
Purple nutsedge; [6]
  Plant response rating, Nutsedge: 0

## Cc1c(-n2c(=O)on(C(=O)N(c3ccc(Cl)cc3)C(C)C)c2=O)ccc2ccccc12 [Compound 336]
bedstraw; [1]
  Plant response rating, Bedstraw: 0
bedstraw; [2]
  Bedstraw plant response rating: 0
bedstraw; Preemergence, Rate 125 g/ha
  Bedstraw plant response rating (0 to 10 scale): 0
bedstraw; [3]
  Bedstraw plant response rating: 0
bedstraw; [4]
  Bedstraw plant response rating: 0
bedstraw; [5]
  Bedstraw plant response rating: 0
bedstraw; [7]
  Plant response rating, Bedstraw: 0
bedstraw; [6]
  Plant response rating, Bedstraw: 0
blackgrass; [1]
  Plant response rating, Blackgrass: 0
blackgrass; [2]
  Blackgrass plant response rating: 0
blackgrass; Preemergence, Rate 125 g/ha
  Blackgrass plant response rating (0 to 10 scale): 0
blackgrass; [3]
  Blackgrass plant response rating: 0
blackgrass; [4]
  Blackgrass plant response rating: 0
blackgrass; [5]
  Blackgrass plant response rating: 0
blackgrass; [7]
  Plant response rating, Blackgrass: 0
blackgrass; [6]
  Plant response rating, Blackgrass: 0
Surinam grass; [1]
  Plant response rating, B. signalgrass: 0
Surinam grass; [2]
  B. signalgrass plant response rating: 0
Surinam grass; Preemergence, Rate 125 g/ha
  B. signalgrass plant response rating (0 to 10 scale, 0 is no effect, 10 is complete control): 0
Surinam grass; [3]
  B. signalgrass plant response rating: 0
Surinam grass; [4]
  B. signalgrass plant response rating: 0
Surinam grass; [5]
  B. signalgrass plant response rating: 0
Surinam grass; [7]
  Plant response rating, B. signalgrass: 0
Surinam grass; [6]
  Plant response rating, B. signalgrass: 0
cocklebur; [1]
  Plant response rating, Cocklebur: 0
cocklebur; [2]
  Cocklebur plant response rating: 0
cocklebur; Preemergence, Rate 125 g/ha
  Cocklebur plant response rating (0 to 10 scale): 0
cocklebur; [3]
  Cocklebur plant response rating: 0
cocklebur; [4]
  Cocklebur plant response rating: 0
cocklebur; [5]
  Cocklebur plant response rating: 0
cocklebur; [6]
  Plant response rating, Cocklebur: 0
corn; [1]
  Plant response rating, Corn: 0
corn; [2]
  Corn plant response rating: 0
corn; Preemergence, Rate 125 g/ha
  Corn plant response rating (0 to 10 scale): 0
corn; [3]
  Corn plant response rating: 0
corn; [4]
  Corn plant response rating: 0
corn; [5]
  Corn plant response rating: 0
corn; [6]
  Plant response rating, Corn: 0
crabgrass; [1]
  Plant response rating, Crabgrass: 0
crabgrass; [2]
  Crabgrass plant response rating: 0
crabgrass; Preemergence, Rate 125 g/ha
  Crabgrass plant response rating (0 to 10 scale): 0
crabgrass; [3]
  Crabgrass plant response rating: 0
crabgrass; [4]
  Crabgrass plant response rating: 0
crabgrass; [5]
  Crabgrass plant response rating: 0
crabgrass; [6]
  Plant response rating, Crabgrass: 0
Giant foxtail; [1]
  Plant response rating, Giant foxtail: 0
Giant foxtail; [2]
  Giant foxtail plant response rating: 0
Giant foxtail; Preemergence, Rate 125 g/ha
  Giant foxtail plant response rating (0 to 10 scale): 0
Giant foxtail; [3]
  Giant foxtail plant response rating: 0
Giant foxtail; [4]
  Giant foxtail plant response rating: 0
Giant foxtail; [5]
  Giant foxtail plant response rating: 0
Giant foxtail; [6]
  Plant response rating, Giant foxtail: 0
morningglory; [1]
  Plant response rating, Morningglory: 0
morningglory; [2]
  Morningglory plant response rating: 0
morningglory; Preemergence, Rate 125 g/ha
  Morningglory plant response rating (0 to 10 scale): 0
morningglory; [3]
  Morningglory plant response rating: 0
morningglory; [4]
  Morningglory plant response rating: 0
morningglory; [5]
  Morningglory plant response rating: 0
morningglory; [6]
  Plant response rating, Morningglory: 0
pigweed; [1]
  Plant response rating, Redroot pigweed: 0
pigweed; [2]
  Redroot pigweed plant response rating: 0
pigweed; Preemergence, Rate 125 g/ha
  Redroot pigweed plant response rating (0 to 10 scale): 0
pigweed; [3]
  Redroot pigweed plant response rating: 0
pigweed; [4]
  Redroot pigweed plant response rating: 0
pigweed; [5]
  Redroot pigweed plant response rating: 0
pigweed; [6]
  Plant response rating, Redroot pigweed: 0
rape; [1]
  Plant response rating, Rape: 0
rape; [2]
  Rape plant response rating: 0
rape; Preemergence, Rate 125 g/ha
  Rape plant response rating (0 to 10 scale): 0
rape; [3]
  Rape plant response rating: 0
rape; [4]
  Rape plant response rating: 0
rape; [5]
  Rape plant response rating: 0
rape; [6]
  Plant response rating, Rape: 0
soybean; [1]
  Plant response rating, Soybean: 1
soybean; [2]
  Soybean plant response rating: 0
soybean; Preemergence, Rate 125 g/ha
  Soybean plant response rating (0 to 10 scale): 0
soybean; [3]
  Soybean plant response rating: 0
soybean; [4]
  Soybean plant response rating: 0
soybean; [5]
  Soybean plant response rating: 1
soybean; [6]
  Plant response rating, Soybean: 2
velvetleaf; [1]
  Plant response rating, Velvetleaf: 0
velvetleaf; [2]
  Velvetleaf plant response rating: 0
velvetleaf; Preemergence, Rate 125 g/ha
  Velvetleaf plant response rating (0 to 10 scale): 0
velvetleaf; [3]
  Velvetleaf plant response rating: 0
velvetleaf; [4]
  Velvetleaf plant response rating: 0
velvetleaf; [5]
  Velvetleaf plant response rating: 0
velvetleaf; [6]
  Plant response rating, Velvetleaf: 0
wheat; [1]
  Plant response rating, Wheat: 0
wheat; [2]
  Wheat plant response rating: 0
wheat; Preemergence, Rate 125 g/ha
  Wheat plant response rating (0 to 10 scale): 0
wheat; [3]
  Wheat plant response rating: 0
wheat; [4]
  Wheat plant response rating: 0
wheat; [5]
  Wheat plant response rating: 0
wheat; [6]
  Plant response rating, Wheat: 0
Wild oat; [1]
  Plant response rating, Wild oats: 0
Wild oat; [2]
  Wild oats plant response rating: 0
Wild oat; Preemergence, Rate 125 g/ha
  Wild oats plant response rating (0 to 10 scale): 0
Wild oat; [3]
  Wild oats plant response rating: 0
Wild oat; [4]
  Wild oats plant response rating: 0
Wild oat; [5]
  Wild oats plant response rating: 0
Wild oat; [6]
  Plant response rating, Wild oats: 0
Purple nutsedge; [1]
  Plant response rating, Nutsedge: 0
Purple nutsedge; [2]
  Nutsedge plant response rating: 0
Purple nutsedge; Preemergence, Rate 125 g/ha
  Nutsedge plant response rating (0 to 10 scale): 0
Purple nutsedge; [3]
  Nutsedge plant response rating: 0
Purple nutsedge; [4]
  Nutsedge plant response rating: 0
Purple nutsedge; [5]
  Nutsedge plant response rating: 0
Purple nutsedge; [6]
  Plant response rating, Nutsedge: 0
